Consider 4 compounds from patent US6525214B1, “Therapeutic agent” (priority 1991, dated 2003).

The nature of data set [1]: Appearance of formulation made with the drug form. It counts as physicochemical. The protocol: The polyethylene glycol was mixed with about 25% of the required purified water and the Carbopol® dispersed in this mixture. About 56% of the required purified water was added with rapid stirring until the CARBOPOL® was well dispersed and appeared hydrated. The sodium hydroxide was dissolved in a minimum of purified water and added to the bulk with stirring. The S(+)-ibuprofen sodium salt dihydrate was dissolved in a mixture of phenoxyethanol, propylene glycol and remaining purified water and added to the Carbopol® gel with rapid stirring.
The LYCASIN® and glycerin were mixed together. The domiphen bromide was dissolved in the alcohol. The sodium salt was added to this alcoholic solution along with sufficient purified water to produce a solution. The aqueous alcoholic solution was added to the LYCASIN®/glycerin mixture and mixed well. Optional flavourings may be added to the above formulation.
The LYCASIN® and glycerin were mixed together and diluted with a suitable volume of water. The sodium salt was dispersed and dissolved in the mixture. The domiphen bromide was dissolved in the alcohol and this solution added slowly with stirring to the bulk. The formulation was made up to volume and mixed well. Optional flavourings may be added to the formulation.
The powders were sieved through a 30 mesh sieve and blended together, then filled into sachets containing 2000 mg of powder. Optional flavourings may be added to the above mixture.

For data set [2] the following is noted: in humans; cited from earlier work.
Setting [3] is: higher strength oral liquid formulation of Example 25.
The mark [4] stands for this setting: low strength oral liquid formulation of Example 23.
Setting [5] is: topical gel formulation of Example 20 (Carbopol gel base).

With `CC(C)Cc1ccc([C@H](C)C(=O)O)cc1` [S(+)-ibuprofen free acid, S(+)-2-(4-isobutylphenyl)propionic acid], in data set [1] (cold relief powder formulation base of Example 27, hot water 70° C. or greater), the “Appearance on addition to hot water” value is recorded as “an unpalatable oily layer on the surface of the hot water”. Further, the Appearance of product result in data set [1] (setting [3]) was “an unsuitable product with the drug floating on the surface”; in data set [1] (setting [4]), “a poor product with a significant proportion of the S(+)-ibuprofen floating on the surface of the product”; in data set [1] (setting [5]), “an opaque product of a high viscosity not suitable for use as a topical rub”.
Regarding `CC(C)Cc1ccc([C@H](C)C(=O)[O-])cc1.O.O.[Na+]` [S(−)sodium 2-(4-isobutylphenyl)propionate dihydrate], the Appearance of product result is on record as “a clear bright liquid” in data set [1] (setting [3]) and “a bright clear product” in data set [1] (setting [4]).
Regarding `CC(C)Cc1ccc(C(C)C(=O)[O-])cc1.[Na+]` (racemic) [sodium salt of ibuprofen racemate, sodium 2-(4-isobutylphenyl)propionate], the Appearance of product entry in data set [1] (setting [5]) was “a totally unsatisfactory product that separated into a clear upper liquid and a cloudy viscous lower layer”.
As for `CC(C)Cc1ccc([C@@H](C)C(=O)O)cc1` [R(−)-ibuprofen, R(−)-2-(4-isobutylphenyl)propionic acid], the “Conversion into S(+)-ibuprofen” value in data set [2] is “partially converted into S(+)-ibuprofen”.
